Results published in patent US12559750B2, “Methods and compositions for treatment of polycystic kidney disease” (Regulus Therapeutics Inc., priority 2021, dated 2026).
pIC50: −log10 of the molar value. e = 2'-O-(2-methoxyethyl) (MOE); k = constrained ethyl (cEt); d = 2'-deoxy (DNA); m = 2'-O-methyl; f = 2'-fluoro

Tested on: AMPA-R
Experiment: [3H]AMPA radioligand binding assay on rat brain synaptic membranes;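 note: competition binding in which test compounds at rising concentrations displace [3H]AMPA from AMPA-R on rat brain synaptic membranes, with reduced bound radioligand as read-out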
Conditions: for % Inhibition @ Concentration 100 uM: Table 8 (3′-terminal nucleobase/sugar variants); for % Inhibition @ Concentration 0.1 uM: Table 8, 0.1 uM; for % Inhibition @ Concentration 1 uM: Table 8, 1 uM; for % Inhibition @ Concentration 10 uM: Table 8, 10 uM
Experimental: The activity of anti-miR-17 compounds was evaluated in a radioligand binding assay which measured the binding of the [^3H] AMPA ligand to the AMPA-R present on rat brain synaptic membranes, in the presence of increasing concentrations of anti-miR-17 compound, anti-miR-17 compounds with affinity for the AMPA-R will bind to and compete with the binding of the [^3H] AMPA ligand.
5.0 nM of the ligand [^3H] AMPA, 1.0 mM of the non-specific ligand L-Glutamic acid, and anti-miR compound at uM concentrations were incubated with synaptic membranes prepared from Wistar rat cerebral cortex for 90 minutes.
The compounds were tested in the radioligand binding assay described herein, to determine the ability of the anti-miR-17 compounds to and compete with the binding of the [3H] AMPA ligand.

AECETEGSTEAASGSCMAFCFUFUMUSCS (ACTGTAAGCACUUUC; S-cEt, 2'-MOE, 2'-F, 2'-OMe modifications; modified_base 3 OTHER; thymine; modified_base 5 OTHER; misc_feature 1..15 Synthetic: RG-NG-1018; modified_base 1..3 OTHER; 2'-O-methoxyethyl nucleoside; modified_base 4 OTHER; S-constrained ethyl nucleoside; modified_base 7..8 OTHER; modified_base 9 OTHER; 2'-O-methyl nucleoside; modified_base 10..12 OTHE)
pIC50 (Experiment #3): < 4.00
% Inhibition @ 0.1 uM (Experiment #3, 0.1 uM): 3%
% Inhibition @ 1 uM (Experiment #3, 1 uM): 8.1%
% Inhibition @ 10 uM (Experiment #3, 10 uM): 1%
% Inhibition @ 100 uM (Experiment #3, 100 uM): 12.3%

AEGECMAFCFUFUMTEGE [RG-NG-1009]
pIC50 (Experiment #2): < 4.00
% Inhibition @ 0.1 uM (Experiment #2, 0.1 uM): −11.8%
% Inhibition @ 1 uM (Experiment #2, 1 uM): 2.7%
% Inhibition @ 10 uM (Experiment #2, 10 uM): 13%
% Inhibition @ 100 uM (Experiment #2, 100 uM): 32.6%

AEGECMAFCFUFUMUSGS [RG-NG-1010]
pIC50 (Experiment #2): 5.46
% Inhibition @ 0.1 uM (Experiment #2, 0.1 uM): 0.7%
% Inhibition @ 1 uM (Experiment #2, 1 uM): 31.3%
% Inhibition @ 10 uM (Experiment #2, 10 uM): 70.1%
% Inhibition @ 100 uM (Experiment #2, 100 uM): 86.4%

AFGSCMAFCFUFUMUSGE [RG-NG-1023]
pIC50 (Experiment #3): 5.51
% Inhibition @ 0.1 uM (Experiment #3, 0.1 uM): 3.1%
% Inhibition @ 1 uM (Experiment #3, 1 uM): 25.6%
% Inhibition @ 10 uM (Experiment #3, 10 uM): 75.2%
% Inhibition @ 100 uM (Experiment #3, 100 uM): 95.3%

ALGLCLALCLTLTLTLGL [RG-NG-1006]
pIC50 (Experiment #1): 5.56
% Inhibition @ 0.1 uM (Experiment #1, 0.1 uM): 6.7%
% Inhibition @ 1 uM (Experiment #1, 1 uM): 35.3%
% Inhibition @ 10 uM (Experiment #1, 10 uM): 68.9%
% Inhibition @ 100 uM (Experiment #1, 100 uM): 93.9%

ALGLCMAFCFUFUMUSGS [RG-NG-1011]
pIC50 (Experiment #2): 5.59
% Inhibition @ 0.1 uM (Experiment #2, 0.1 uM): −2.2%
% Inhibition @ 1 uM (Experiment #2, 1 uM): 30.6%
% Inhibition @ 10 uM (Experiment #2, 10 uM): 78.5%
% Inhibition @ 100 uM (Experiment #2, 100 uM): 94%

AMAMGLCLALCLUMTLUCM [RG-NG-1030]
pIC50 (Experiment #2): < 4.00
% Inhibition @ 0.1 uM (Experiment #2, 0.1 uM): 2.9%
% Inhibition @ 1 uM (Experiment #2, 1 uM): 6.5%
% Inhibition @ 10 uM (Experiment #2, 10 uM): 15%
% Inhibition @ 100 uM (Experiment #2, 100 uM): 1.9%

AMAMGLCLALCLUMTLUM [RG-NG-1031]
pIC50 (Experiment #2): < 4.00
% Inhibition @ 0.1 uM (Experiment #2, 0.1 uM): −4.3%
% Inhibition @ 1 uM (Experiment #2, 1 uM): 1%
% Inhibition @ 10 uM (Experiment #2, 10 uM): 2.7%
% Inhibition @ 100 uM (Experiment #2, 100 uM): 16.7%

AMGLCLALCLUMTLUCM [RG-NG-1029]
pIC50 (Experiment #2): < 4.00
% Inhibition @ 0.1 uM (Experiment #2, 0.1 uM): 0.9%
% Inhibition @ 1 uM (Experiment #2, 1 uM): 15.9%
% Inhibition @ 10 uM (Experiment #2, 10 uM): 7%
% Inhibition @ 100 uM (Experiment #2, 100 uM): 38.4%

ASASGSCMAFCFUFUMUS [RG-NG-1013]
pIC50 (Experiment #2): < 4.00
% Inhibition @ 0.1 uM (Experiment #2, 0.1 uM): −3.8%
% Inhibition @ 1 uM (Experiment #2, 1 uM): −5.6%
% Inhibition @ 10 uM (Experiment #2, 10 uM): 3.7%
% Inhibition @ 100 uM (Experiment #2, 100 uM): 37.2%

ASCSTGSUSAASGSCMAFCFUFUMUSCS (ACTGUAAGCACUUUC; cEt at 1, 2, 4, 5, 7, 8, 14, 15, 2'-O-methyl at 9, 13, 2'-fluoro at 10, 11, 12, other sugars and backbone not given here) [RG-NG-1019]
pIC50 (Experiment #3): < 4.00
% Inhibition @ 0.1 uM (Experiment #3, 0.1 uM): 12.9%
% Inhibition @ 1 uM (Experiment #3, 1 uM): 17.2%
% Inhibition @ 10 uM (Experiment #3, 10 uM): 15.6%
% Inhibition @ 100 uM (Experiment #3, 100 uM): 21%

ASGECMAFCFUFUMTEGS [RG-NG-1008]
pIC50 (Experiment #2): 4.25
% Inhibition @ 0.1 uM (Experiment #2, 0.1 uM): −22.4%
% Inhibition @ 1 uM (Experiment #2, 1 uM): 13.6%
% Inhibition @ 10 uM (Experiment #2, 10 uM): 22.1%
% Inhibition @ 100 uM (Experiment #2, 100 uM): 59.6%

ASGLCMAFCFUFUMTLGS [RG-NG-1012]
pIC50 (Experiment #2): 5.59
% Inhibition @ 0.1 uM (Experiment #2, 0.1 uM): 9.9%
% Inhibition @ 1 uM (Experiment #2, 1 uM): 38.5%
% Inhibition @ 10 uM (Experiment #2, 10 uM): 69%
% Inhibition @ 100 uM (Experiment #2, 100 uM): 88.3%

ASGSCFAFCFUFUFUSGS [RG-NG-1007]
pIC50 (Experiment #2): 5.77
% Inhibition @ 0.1 uM (Experiment #2, 0.1 uM): 3.1%
% Inhibition @ 1 uM (Experiment #2, 1 uM): 39.7%
% Inhibition @ 10 uM (Experiment #2, 10 uM): 83.2%
% Inhibition @ 100 uM (Experiment #2, 100 uM): 94.3%

ASGSCMAFCFUFUMTEGE [RG-NG-1024]
pIC50 (Experiment #3): < 4.00
% Inhibition @ 0.1 uM (Experiment #3, 0.1 uM): −17%
% Inhibition @ 1 uM (Experiment #3, 1 uM): −4.7%
% Inhibition @ 10 uM (Experiment #3, 10 uM): 6.5%
% Inhibition @ 100 uM (Experiment #3, 100 uM): 35.2%

ASGSCMAFCFUFUMUS [RG-NG-1014]
pIC50 (Experiment #2): < 4.00
% Inhibition @ 0.1 uM (Experiment #2, 0.1 uM): 14.9%
% Inhibition @ 1 uM (Experiment #2, 1 uM): −5.5%
% Inhibition @ 10 uM (Experiment #2, 10 uM): 8.6%
% Inhibition @ 100 uM (Experiment #2, 100 uM): 20.4%

ASGSCMAFCFUFUMUSAM [RG-NG-1038]
pIC50 (Table 8): 5.08
% Inhibition @ Concentration 100 uM: 81.3%
% Inhibition @ Concentration 0.1 uM: 17.9%
% Inhibition @ Concentration 1 uM: 25.4%
% Inhibition @ Concentration 10 uM: 47.4%

ASGSCMAFCFUFUMUSDM [RG-NG-1037]
pIC50 (Table 8): ≤ 4.00
% Inhibition @ Concentration 100 uM: 10.7%
% Inhibition @ Concentration 0.1 uM: 11.1%
% Inhibition @ Concentration 1 uM: 9.2%
% Inhibition @ Concentration 10 uM: 2.4%

ASGSCMAFCFUFUMUSED [RG-NG-1039]
% Inhibition @ Concentration 100 uM: 30.2%
% Inhibition @ Concentration 0.1 uM: 27.3%
% Inhibition @ Concentration 1 uM: 27%
% Inhibition @ Concentration 10 uM: 35.8%

ASGSCMAFCFUFUMUSGD [RG-NG-1033]
pIC50 (Table 8): 6.89
% Inhibition @ Concentration 100 uM: 97.3%
% Inhibition @ Concentration 0.1 uM: 44.9%
% Inhibition @ Concentration 1 uM: 80.9%
% Inhibition @ Concentration 10 uM: 96.5%

ASGSCMAFCFUFUMUSGE [RG-NG-1025]
pIC50 (Experiment #3): 5.73
% Inhibition @ 0.1 uM (Experiment #3, 0.1 uM): −3.8%
% Inhibition @ 1 uM (Experiment #3, 1 uM): 36.5%
% Inhibition @ 10 uM (Experiment #3, 10 uM): 84.1%
% Inhibition @ 100 uM (Experiment #3, 100 uM): 96.4%

ASGSCMAFCFUFUMUSGM [RG-NG-1034]
pIC50 (Table 8): 5.92
% Inhibition @ Concentration 100 uM: 99.7%
% Inhibition @ Concentration 0.1 uM: 14.3%
% Inhibition @ Concentration 1 uM: 44.8%
% Inhibition @ Concentration 10 uM: 85.2%

ASGSCMAFCFUFUMUSIM [RG-NG-1035]
pIC50 (Table 8): 6.12
% Inhibition @ Concentration 100 uM: 98.5%
% Inhibition @ Concentration 0.1 uM: 27.2%
% Inhibition @ Concentration 1 uM: 46.3%
% Inhibition @ Concentration 10 uM: 91.3%

ASGSCMAFCFUFUMUSNM [RG-NG-1036]
pIC50 (Table 8): 4.73
% Inhibition @ Concentration 100 uM: 78.1%
% Inhibition @ Concentration 0.1 uM: 19.2%
% Inhibition @ Concentration 1 uM: 11.3%
% Inhibition @ Concentration 10 uM: 36.2%

ASGSCMALCFUFUMUSCS [RG-NG-1026]
pIC50 (Experiment #2): < 4.00
% Inhibition @ 0.1 uM (Experiment #2, 0.1 uM): −3.3%
% Inhibition @ 1 uM (Experiment #2, 1 uM): −1.1%
% Inhibition @ 10 uM (Experiment #2, 10 uM): −3.5%
% Inhibition @ 100 uM (Experiment #2, 100 uM): 2.3%

ASGSCMASCMUSUMUSGS [RG-NG-1003]
pIC50 (Experiment #1): 5.03
% Inhibition @ 0.1 uM (Experiment #1, 0.1 uM): 5.7%
% Inhibition @ 1 uM (Experiment #1, 1 uM): 13.9%
% Inhibition @ 10 uM (Experiment #1, 10 uM): 56.9%
% Inhibition @ 100 uM (Experiment #1, 100 uM): 77.8%

ASGSCSAFCFUFUMUSCS [RG-NG-1027]
pIC50 (Experiment #2): < 4.00
% Inhibition @ 0.1 uM (Experiment #2, 0.1 uM): −2.2%
% Inhibition @ 1 uM (Experiment #2, 1 uM): 2.3%
% Inhibition @ 10 uM (Experiment #2, 10 uM): −2.2%
% Inhibition @ 100 uM (Experiment #2, 100 uM): 3%

ASGSCSALCFUFUMUSCS [RG-NG-1028]
pIC50 (Experiment #2): < 4.00
% Inhibition @ 0.1 uM (Experiment #2, 0.1 uM): 15.7%
% Inhibition @ 1 uM (Experiment #2, 1 uM): 2.1%
% Inhibition @ 10 uM (Experiment #2, 10 uM): 2%
% Inhibition @ 100 uM (Experiment #2, 100 uM): 2.7%

ASGSCSASCSUSUSUS [RG-NG-1002]
pIC50 (Experiment #1): < 4.00
% Inhibition @ 0.1 uM (Experiment #1, 0.1 uM): 0%
% Inhibition @ 1 uM (Experiment #1, 1 uM): −2.0%
% Inhibition @ 10 uM (Experiment #1, 10 uM): −16.9%
% Inhibition @ 100 uM (Experiment #1, 100 uM): 24.0%
pIC50 (Experiment #2): < 4.00
% Inhibition @ 0.1 uM (Experiment #2, 0.1 uM): −5.5%
% Inhibition @ 1 uM (Experiment #2, 1 uM): 4.6%
% Inhibition @ 10 uM (Experiment #2, 10 uM): −2.1%
% Inhibition @ 100 uM (Experiment #2, 100 uM): 24.6%

CETEGSCEAECETEGSTEADASGSCMAFCFUFUMUSGS (CTGCACTGTAAGCACUUUG; sugars from the 5' end eekeeeekedkkmfffmkk, backbone and methylation of C not given here) [RG-NG-1040]
pIC50 (Table 8): 4.54
% Inhibition @ Concentration 100 uM: 64.1%
% Inhibition @ Concentration 0.1 uM: 10.4%
% Inhibition @ Concentration 1 uM: 14.4%
% Inhibition @ Concentration 10 uM: 38.9%
